Test results reported in patent US7589177B2, “Nucleic acid molecules encoding cyclotide polypeptides and methods of use” (E.I. du Pont de Nemours & Company, priority 2004, dated 2009).

Key:
Sclerotinia = Sclerotinia hyphal growth inhibition dose-response assay; type: cell-based, Sclerotinia sclerotiorum; set-up: key: 0: no inhibition of fungal growth; 1: slight inhibition; 2: moderate inhibition; 3: extensive inhibition; 4: total inhibition; conditions: 48 hours
Procedure: To test the activity of cyclotide 2 against Sclerotinia, a Sclerotinia test inoculum was started by inoculating ½ strength PDB liquid with a sterile loop of hyphae from a Sclerotinia culture propagated on a ⅛ strength potato dextrose agar (PDA) plate. This liquid inoculum was held at room temperature (22° C.), without shaking, in the dark for 4 days, to allow sufficient growth of hyphae. The resulting suspension was macerated using a sterile polytron tissue grinder. The sample was then diluted with ½ strength PDB to the point of invisibility to the naked eye (observation under microscopy at 40× indicated the presence of 12-15 hyphal fragments per 50 μL aliquot of inoculum). Then, 50 μL of the inoculum was added to each well of a 96 shallow well bioassay plate.
The cyclotide sample, following fractionation and lyophilization, was resuspended in 100 μL ½ strength PDB, placed on ice and gently shaken. Then, 50 μL of resuspended sample was added to each corresponding well of the bioassay plate to give a final test volume of 100 μL and […] per well. In the inoculum control wells, 50 μL of inoculum and 50 μL of ½ strength PDB were used, while the media control wells contained 100 μL of ½ strength PDB. The wells were covered with Breathe-Easy membranes (Web Scientific Ltd., Cheshire, U.K.) and placed in the dark on the benchtop.
For the dose-response assay, lyophilized cyclotide 2 was resuspended in 40 μL of ½ strength PDB solution. Then, 20 μL of the resuspended sample was pipetted into 4 different wells containing either 8 μL, 6 μL, 4 μL or 2 μL of suspension. The final volume in each well was adjusted to 100 μL with the Sclerotinia test inoculum. The plates were covered with Breathe-Easy membranes (Web Scientific Ltd., Cheshire, U.K.) and placed in the dark on the benchtop.

Caenorhabditis elegans [1] = assay: Nematocidal activity of cyclotide 2 against C. elegans (dose-response, development score); type: in vivo; conditions: fractionated crude extract of Viola spp.
[2] = tested on: Colletotrichum graminaria; assay: Dose-response fungal growth inhibition assay; type: cell-based; conditions: 2500 spores/mL in 1/2 strength PDB, 28° C., scored after 24 and 48 hours
Procedure: (§1) The anti-fungal activity of cyclotide 2 was tested against the crop pathogens Fusarium verticilloides and Colletotrichum graminaria, and the filamentous fungus Neurospora crassa. To conduct the assay, 100 μL of ½ strength potato dextrose broth (PDB) containing a spore suspension of 2500 spores/mL was added to each well in a 96 well microtiter plate containing dried HPLC fractions. The plates were mixed three times in approximately five minute intervals before incubation at 28° C., and were scored after 24 hours and 48 hours for inhibition of fungal growth. Inhibition of fungal growth was defined as little to no spore germination with no detectable hyphae growth.
(§2) The dose-response fungal assays were performed by resuspending the lyophilized cyclotide protein sample in 200 μL of a solution which consisted of fungal spores suspended in ½ strength potato dextrose broth (PDB) at a concentration of 2500 spores/mL. The spores were either from Fusarium verticilloides, Colletotrichum graminaria or Neurospora crassa. This resuspended sample represented a starting stock solution. A 0.5× dilution series was then prepared by removing 100 μL of the starting stock solution and adding it to a well in a 96 well tray containing 100 μL of spore suspension (2500 spores/mL), mixing thoroughly and then transferring 100 μL of the newly diluted cyclotide/spore suspension to a fresh well containing 100 μL of spore suspension etc., until all 12 columns of the row of sample in the 96 well tray were prepared. The final volume of the assay was then 100 μL. The plates were mixed three times in approximately five minute intervals before they were incubated at 28° C. and then were scored after 24 and 48 hours for inhibition of fungal growth. Inhibition of fungal growth was defined as little to no spore germination with no detectable hyphae growth.

Neurospora crassa = assay: Dose-response fungal growth inhibition assay; type: cell-based; conditions: 2500 spores/mL in 1/2 strength PDB, 28° C., scored after 24 and 48 hours
Procedure: as §1, §2

Fusarium verticilloides = assay: Dose-response fungal growth inhibition assay; type: cell-based; conditions: 2500 spores/mL in 1/2 strength PDB, 28° C., scored after 24 and 48 hours
Procedure: as §1, §2

Caenorhabditis elegans [3] = assay: Nematocidal activity of cyclotide 2 against C. elegans (dose-response, development score); type: in vivo; set-up: key to Replicate 1 Score (nematode development) / Replicate 2 Score (nematode development): 1: no development; 2: little development; 5: medium development; 10: full development; conditions: for Replicate 1 Score (nematode development) / Replicate 2 Score (nematode development): 50 L1-stage nematodes per well
Procedure: Samples of cyclotide 2 to be used in a dose-response assay were resuspended in 180 μl distilled H2O to create a stock solution of 161.3 μM. The dose-response assay was carried out in 96 well microtiter plates with each dose prepared in replicates of two. Each assay well contained 50 L1-stage nematodes which had been grown in S-medium (100 mM NaCl, 10 mM K citrate, pH 6.0, 50 mM KHPO4, pH 6.0, 3 mM CaCl2, 3 mM MgCl2, […], […], 10 mM MnCl2, 10 mM ZnSO4, 1 mM CuSO4) and had been allowed to feed on overnight cultured E. coli strain OP50, 30 μg/mL tetracycline and 30 μg/mL chloramphenicol. The total assay volume was 100 μL. The assay was scored at days 3 and 4 (Table 3).

Panagrellus redivivus = assay: Bioactivity of cyclotide 2 against the nematode Panagrellus redivivus (dose-response, % mortality); type: in vivo
Procedure: Panagrellus was grown in basal medium and diluted in sterile water to create a stock solution concentration of 200 nematodes/50 μL (the basal media inoculum). Using a multi-channel pipette, 50 μL of the nematode stock solution was added to each well of plates containing the fractionated crude extract. Tests were performed on duplicate samples. Once the activity was established, the HPLC peaks corresponding to the active wells were purified and dose-response assays were done.
Samples for a dose-response assay were resuspended in 40 μL and 4 wells of 8 μL, 6 μL, 4 μL and 2 μL were prepared in replicates of two. The volume was adjusted with the basal media inoculum to get a final volume of 50 μL and 200 nematodes per well. […] The percent mortality was calculated as ratio of dead nematodes against the total (living and dead) number present in the test wells.

With “cyclotide 2: bioactive cyclotide purified from Viola spp. extract; SEQ ID NO:6 GIPCGESCVWIPCISAAIGCSCKSKVCYRN (cyclo(GIPCGESCVWIPCISAAIGCSCKSKVCYRN); not fully specified (bridges); also: three disulfide bonds (cystine knot), pairings not given here; listed as Viola sp.)” the “Score (inhibition of hyphal growth)” value (Sclerotinia; 1.67 μM) was 1, the “Score (inhibition of hyphal growth)” value (Sclerotinia; 3.33 μM) was 2 and the “Score (inhibition of hyphal growth)” value (Sclerotinia; 5.0 μM) was 4. For the same substance, the “Score (inhibition of hyphal growth)” value (Sclerotinia; 6.67 μM) was 3, the “Activity of HPLC peak against Caenorhabditis elegans” value (Caenorhabditis elegans [1]) was “specifically active” and the “Cyclotide concentration at which total inhibition of fungal growth is observed” value [2] was 2.5 µM. The “Cyclotide concentration at which total inhibition of fungal growth is observed” value (Neurospora crassa) was 1.25 µM, the “Cyclotide concentration at which total inhibition of fungal growth is observed” value (Fusarium verticilloides) was 10 µM and the “Replicate 1 Score (nematode development)” value (Caenorhabditis elegans [3]; 0.81 μM) was 10. For the same substance, the “Replicate 2 Score (nematode development)” value (Caenorhabditis elegans [3]; 0.81 μM) was 10, the “Replicate 1 Score (nematode development)” value (Caenorhabditis elegans [3]; 1.62 μM) was 10 and the “Replicate 2 Score (nematode development)” value (Caenorhabditis elegans [3]; 1.62 μM) was 10. The “Replicate 1 Score (nematode development)” value (Caenorhabditis elegans [3]; 3.24 μM) was 5, the “Replicate 2 Score (nematode development)” value (Caenorhabditis elegans [3]; 3.24 μM) was 5 and the “Replicate 1 Score (nematode development)” value (Caenorhabditis elegans [3]; 6.48 μM) was 2. For the same substance, the “Replicate 2 Score (nematode development)” value (Caenorhabditis elegans [3]; 6.48 μM) was 2, the “Replicate 1 Score (nematode development)” value (Caenorhabditis elegans [3]; 16.2 μM) was 1 and the “Replicate 2 Score (nematode development)” value (Caenorhabditis elegans [3]; 16.2 μM) was 1. For the same substance, the LD90 (Caenorhabditis elegans [3]; recorded after day three) was 6.48 µM, the “Scored at 18 hrs (% mortality)” value (Panagrellus redivivus; 10.07 μM) was 60% and the “Scored at 24 hrs (% mortality)” value (Panagrellus redivivus; 10.07 μM) was 74%. For the same substance, the “Scored at 18 hrs (% mortality)” value (Panagrellus redivivus; 20.13 μM) was greater than 60%, the “Scored at 24 hrs (% mortality)” value (Panagrellus redivivus; 20.13 μM) was 78% and the “Scored at 18 hrs (% mortality)” value (Panagrellus redivivus; 30.20 μM) was 70%. The “Scored at 24 hrs (% mortality)” value (Panagrellus redivivus; 30.20 μM) was 80%, the “Scored at 18 hrs (% mortality)” value (Panagrellus redivivus; 40.27 μM) was 85% and the “Scored at 24 hrs (% mortality)” value (Panagrellus redivivus; 40.27 μM) was 90%. The “Scored at 18 hrs (% mortality)” value (Panagrellus redivivus; 50.34 μM) was 85%, the “Scored at 24 hrs (% mortality)” value (Panagrellus redivivus; 50.34 μM) was 95% and the “Scored at 18 hrs (% mortality)” value (Panagrellus redivivus; 60.40 μM) was 90%. The “Scored at 24 hrs (% mortality)” value (Panagrellus redivivus; 60.40 μM) was roughly 100%, the “Activity of HPLC peak against Panagrellus redivivus” value (Panagrellus redivivus; fractionated crude extract of Viola spp.) was “specifically active” and the “LD90 concentration (concentration at which 90% of the nematodes are killed)” value (Panagrellus redivivus; within 24 hrs observation time) was 40.27 µM.
